Laboratory results as given in patent US11236052B2, “Aminobenzimidazole derivatives, treatments, and methods of inhibiting histone deacetylase” (TRANSLATIONAL DRUG DEVELOPMENT, LLC, priority 2017, dated 2022).
Like-named read-outs stand apart in the source and are kept apart here. Each block holds one molecule with its values, some of them ahead of it.

Experiments:
MM1.S cells = experiment: CellTiter-Glo cell viability assay, MM1.S cells; format: cell-based, human; conditions: Homo sapiens; MM1.S cells, 72 hours treatment; read-out: IC50 in MM1.S
Experimental: Cell viability in the presence of varying concentrations of the above listed compounds at different time points was used to assess cytotoxicity and the effect of the compounds on cell proliferation.
(§1) Cell Viability Assay—Cell viability was measured by the CellTiter-GlO® cell viability assay from Promega (Madison, Wis.). The CellTiter-GlO® Luminescent Cell Viability Assay is a homogeneous method to determine the number of viable cells in culture based on quantitation of the ATP present, which signals the presence of metabolically active cells. Following treatment, CellTiter-GlO® is added to treatment wells and incubated at 37° C. luminescence values were measured at using a Molecular Devices Spectramax microplate reader
(§2) Single Agent Studies—Cells were grown to 70% confluency, trypsinized, counted, and seeded in 96 well flat-bottom plates at a final concentration of 2.5×10^3-5×10^3 cells/well (Day 0). Cells were allowed to incubate in growth media for 24 hours. Treatment with the test agents or standard agents began on Day 1 and continued for 72 hours. At the 72 hour timepoint, treatment containing media was removed. Viable cell numbers are quantified by the CellTiter-GlO® cell viability assay as described above. Results from these studies were used to calculate an IC50 value (concentration of drug that inhibits cell growth by 50 percent of control) for each compound.
Data Collection—For single agent and combination studies, data from each experiment was collected and expressed as % Cell Growth using the following calculation: Cell Growth=(ftest/fvehicle)×100
Where ftest is the fluorescence of the tested sample, and fvehicle is the fluorescence of the vehicle in which the drug is dissolved. Dose response graphs and IC50 values were generated using Prism 6 software (GraphPad) using the following equation: […]
Where X is the logarithm of concentration and Y is the response. Y starts at the Bottom and goes to Top with a sigmoid shape.
as §1, with “CellTiter-Glo®” for “CellTiter-GlO®”, “assay” for “assay from”, “reader.” for “reader”
as §2, with “agents” for “agents or standard agents”, “72-hour time point, treatment-containing” for “72 hour timepoint, treatment containing”, “CellTiter-Glo®” for “CellTiter-GlO®”, “above. Experiments were run with triplicate concentrations to determine growth inhibitory activity.” for “above.”
Data Collection—For single agent and combination studies, data from each experiment was collected and expressed as % Cell Growth using the following calculation: % Cell Growth=(ftest/fvehicle)×100
Where ftest is the luminescence of the tested sample, and fvehicle is the luminescence of the vehicle in which the drug is dissolved. Dose response graphs and IC50 values were generated using Prism 6 software (GraphPad).

[1] = Pharmacokinetic studies in the mouse; format: in vivo
Experimental: Plasma samples were collected from healthy mice and analyzed for levels of compound ID #1, ID #2, and ID #3 and reported in Table 5. In brief, compounds were individually and accurately weighed out to produce a stock solution in Dimethyl-sulfoxide (DMSO) at a concentration of 2 mg/mL and stored at −20° C. From the stock solution, a working stock was prepared by diluting it in Methanol-Water 50:50 (v/v) at 20 μg/mL for calibration curve preparation and stored at 4° C. Standards used for quantitation and quality control samples (QC's) were prepared on the same day of sample processing using blank plasma obtained from non-treated mice. For each analyte, standards were prepared through serial dilution of the working stock at concentrations of 0.1, 0.5, 1.0, 10, 50, 100, 500 and 1000 ng/mL; QC's were prepared at intermediate concentrations of 0.75, 7.5, 75 and 750 ng/mL. Plasma samples were stored at −80° C. until ready for analysis and then placed on ice for thawing. An aliquot of 20 μL for samples, standards and QC's, were transferred into a 96-well extraction plate according to a pre-defined layout. Appropriate volume of Methanol-Formic Acid 99.9-0.1 containing internal standard (Verapamil at 25 ng/mL) was added to each well and samples were extracted under vacuum. Eluent was then transferred into a LCMS plate for analysis using a suitable column for separation and MRM detection. Concentration of analytes was calculated based on the calibration curve and analyzed for pharmacokinetic parameters by using Non-compartmental analysis (NCA) using WinNonlin Phoenix software. Parameters such as Cmax, Tmax, half-life, AUC(0-last), AUC(0-∞), volume of distribution (Vss) and clearance (Cl/F) were reported.
The analogs were tested for pharmacokinetic analysis in the mouse with doses of 1 mg/kg for intravenous (IV) route and 5 mg/kg for oral (P0) route. […] Overall exposure following IV dose also favored compound ID #1 with AUCO-∞ 1488.1 hr*ng/mL whereas compound ID #2 and ID #3 were 329.1 and 1193.7 hr*ng/mL, respectively.

HDAC3 = HDAC3 (Homo sapiens (Human), UniProt O15379); experiment: In vitro HDAC enzyme inhibition, mobility shift; format: biochemical; conditions: purified enzyme
HDAC3, sequence (O15379 whole entry): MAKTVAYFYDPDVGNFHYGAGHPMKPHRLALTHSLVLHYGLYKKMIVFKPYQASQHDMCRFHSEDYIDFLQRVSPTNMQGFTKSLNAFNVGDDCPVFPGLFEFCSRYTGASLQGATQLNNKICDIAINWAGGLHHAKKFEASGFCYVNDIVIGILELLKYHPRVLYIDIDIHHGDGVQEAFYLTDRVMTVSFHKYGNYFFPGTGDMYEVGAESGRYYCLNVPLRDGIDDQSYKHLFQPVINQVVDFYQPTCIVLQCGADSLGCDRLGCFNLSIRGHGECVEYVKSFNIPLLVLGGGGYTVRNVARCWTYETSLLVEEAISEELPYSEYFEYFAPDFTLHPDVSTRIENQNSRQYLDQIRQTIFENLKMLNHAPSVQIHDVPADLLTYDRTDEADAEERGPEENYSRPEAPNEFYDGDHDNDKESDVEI
HDAC3, sequence (Q9Y618 395-489 partner): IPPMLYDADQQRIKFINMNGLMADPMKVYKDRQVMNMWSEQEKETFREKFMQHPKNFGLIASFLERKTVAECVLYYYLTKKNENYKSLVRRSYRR
Experimental: (§3) Purified histone deacetylase enzymes 1, 3, 6, 10 were incubated with fluorescently labeled substrate and test compounds in a standardized reaction mixture in 384 well plates. Upon termination of the reaction, samples were introduced onto microfluidic chips. Samples migrate through channels in the chips and product and substrate are separated based on the difference in their charge and mass (electrophoretic mobility shift). Enzyme activity is measured by direct comparison of the fluorescence in the product and substrate peaks and the results presented in Table 4.

HDAC1 = HDAC1 (Homo sapiens (Human), UniProt Q13547); experiment: In vitro HDAC enzyme inhibition, mobility shift; format: biochemical; conditions: purified enzyme
HDAC1, sequence (Q13547 whole entry): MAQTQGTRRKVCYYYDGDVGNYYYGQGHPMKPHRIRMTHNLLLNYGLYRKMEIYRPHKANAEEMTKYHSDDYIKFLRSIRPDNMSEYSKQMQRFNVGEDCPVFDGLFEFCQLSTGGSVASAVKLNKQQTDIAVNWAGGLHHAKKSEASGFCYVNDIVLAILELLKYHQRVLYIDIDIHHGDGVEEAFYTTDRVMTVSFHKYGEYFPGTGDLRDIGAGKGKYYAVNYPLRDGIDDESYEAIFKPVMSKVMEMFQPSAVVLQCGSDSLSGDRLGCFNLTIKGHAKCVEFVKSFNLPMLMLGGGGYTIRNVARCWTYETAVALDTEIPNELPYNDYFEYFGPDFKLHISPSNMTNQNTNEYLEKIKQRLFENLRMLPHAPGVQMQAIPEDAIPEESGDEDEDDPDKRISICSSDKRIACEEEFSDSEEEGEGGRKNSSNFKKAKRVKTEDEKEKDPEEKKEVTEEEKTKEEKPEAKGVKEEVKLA
Experimental: as §3

HDAC10 = HDAC10 (Homo sapiens (Human), UniProt Q969S8); experiment: In vitro HDAC enzyme inhibition, mobility shift; format: biochemical; conditions: purified enzyme
HDAC10, sequence (Q969S8 whole entry): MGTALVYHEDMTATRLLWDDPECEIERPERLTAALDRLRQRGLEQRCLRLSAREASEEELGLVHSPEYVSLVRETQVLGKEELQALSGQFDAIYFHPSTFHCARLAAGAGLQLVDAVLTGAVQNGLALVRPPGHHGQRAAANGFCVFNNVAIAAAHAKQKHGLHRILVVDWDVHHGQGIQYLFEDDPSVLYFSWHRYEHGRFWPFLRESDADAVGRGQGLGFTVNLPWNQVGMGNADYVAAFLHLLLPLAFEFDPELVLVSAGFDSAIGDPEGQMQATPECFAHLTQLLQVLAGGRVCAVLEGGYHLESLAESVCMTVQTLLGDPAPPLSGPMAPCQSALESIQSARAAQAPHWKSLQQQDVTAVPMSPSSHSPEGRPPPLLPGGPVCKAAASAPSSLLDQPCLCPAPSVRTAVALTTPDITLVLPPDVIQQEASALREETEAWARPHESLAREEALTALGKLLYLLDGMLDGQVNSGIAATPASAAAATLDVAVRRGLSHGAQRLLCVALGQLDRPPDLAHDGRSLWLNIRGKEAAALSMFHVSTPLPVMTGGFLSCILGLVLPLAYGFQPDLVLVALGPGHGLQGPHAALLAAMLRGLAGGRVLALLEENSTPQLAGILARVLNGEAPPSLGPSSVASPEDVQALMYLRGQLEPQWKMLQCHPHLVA
Experimental: as §3

HDAC6 = HDAC6 (Homo sapiens (Human), UniProt Q9UBN7); experiment: In vitro HDAC enzyme inhibition, mobility shift; format: biochemical; conditions: purified enzyme
HDAC6, sequence (Q9UBN7 whole entry): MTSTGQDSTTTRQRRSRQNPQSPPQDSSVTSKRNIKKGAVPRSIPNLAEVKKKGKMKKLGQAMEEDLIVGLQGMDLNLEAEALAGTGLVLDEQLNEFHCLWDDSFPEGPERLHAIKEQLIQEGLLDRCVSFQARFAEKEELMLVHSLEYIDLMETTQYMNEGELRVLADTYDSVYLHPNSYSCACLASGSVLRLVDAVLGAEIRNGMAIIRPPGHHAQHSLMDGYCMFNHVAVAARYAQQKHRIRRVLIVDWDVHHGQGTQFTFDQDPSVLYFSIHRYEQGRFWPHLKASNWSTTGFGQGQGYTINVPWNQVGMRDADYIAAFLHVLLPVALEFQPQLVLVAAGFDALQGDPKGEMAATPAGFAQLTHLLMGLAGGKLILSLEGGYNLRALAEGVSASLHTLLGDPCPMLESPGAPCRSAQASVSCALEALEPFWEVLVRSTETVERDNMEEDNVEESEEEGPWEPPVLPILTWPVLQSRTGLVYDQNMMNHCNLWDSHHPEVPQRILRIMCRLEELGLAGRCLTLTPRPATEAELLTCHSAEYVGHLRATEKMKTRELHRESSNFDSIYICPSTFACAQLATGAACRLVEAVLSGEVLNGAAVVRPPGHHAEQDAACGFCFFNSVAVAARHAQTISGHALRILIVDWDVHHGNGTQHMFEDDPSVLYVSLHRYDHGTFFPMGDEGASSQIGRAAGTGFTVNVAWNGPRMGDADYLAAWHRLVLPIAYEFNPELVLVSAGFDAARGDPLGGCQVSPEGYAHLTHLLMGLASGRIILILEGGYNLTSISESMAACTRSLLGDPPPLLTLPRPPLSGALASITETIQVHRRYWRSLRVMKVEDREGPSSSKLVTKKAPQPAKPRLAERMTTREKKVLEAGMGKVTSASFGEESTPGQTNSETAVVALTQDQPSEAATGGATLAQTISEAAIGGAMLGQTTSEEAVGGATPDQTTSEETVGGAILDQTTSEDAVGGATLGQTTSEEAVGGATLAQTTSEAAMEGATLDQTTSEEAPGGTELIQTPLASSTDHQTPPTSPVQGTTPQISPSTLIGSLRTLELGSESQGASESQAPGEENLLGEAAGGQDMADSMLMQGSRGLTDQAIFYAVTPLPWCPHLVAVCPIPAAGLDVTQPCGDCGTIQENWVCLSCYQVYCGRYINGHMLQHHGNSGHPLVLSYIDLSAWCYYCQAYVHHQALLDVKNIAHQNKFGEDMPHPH
Experimental: as §3

S9 in vitro half-life = format: in vitro ADME; conditions: S9 fraction
Permeability (PAMPA) = format: in vitro ADME; conditions: read-out: Permeabiltiy (PAMPA)

- IC50 (MM1.S cells): 1200 nM
SMILES: O=C(NO)c1ccc(Nc2nc3cc(F)ccc3n2CC2CCC(F)(F)CC2)cc1 [ID #8]

- IC50 (MM1.S cells): 2900 nM
SMILES: O=C(NO)c1ccc(Nc2nc3cc(F)ccc3n2CC2CCOCC2)cc1 [ID #10, 4-((5-fluoro-1-((tetrahydro-2H-pyran-4-yl)methyl)-1H-benzo[d]imidazol-2-yl)amino)-N-hydroxybenzamide]

- IC50 (MM1.S cells): 2900 nM
SMILES: O=C(NO)c1ccc(Nc2nc3ccccc3n2CC2CCOCC2)cc1 [ID #9, N-hydroxy-4-((1-((tetrahydro-2H-pyran-4-yl)methyl)-1H-benzo[d]imidazol-2-yl)amino)benzamide]

The next lines start with the molecule.

SMILES: O=C(NO)c1ccc(Nc2nc3ccccc3n2CC2CCC(F)(F)CC2)cc1 [ID #7]
- IC50 (MM1.S cells): 700 nM

SMILES: O=C(NO)c1ccc(Nc2nc3ccccc3n2CCC2CCCC2)cc1 [ID #6, 4-((1-(2-cyclopentylethyl)-1H-benzo[d]imidazol-2-yl)amino)-N-hydroxybenzamide]
- IC50 (MM1.S cells): 1100 nM

SMILES: O=C(NO)c1ccc(Nc2nc3ccccc3n2CC2CCCC2)cc1 [ID #5, 4-((1-(cyclopentylmethyl)-1H-benzo[d]imidazol-2-yl)amino)-N-hydroxybenzamide]
- IC50 (MM1.S cells): 2200 nM

SMILES: O=C(NO)c1ccc(Nc2nc3ccccc3n2C2CCCCC2)cc1 [ID #2, 4-((1-cyclohexyl-1H-benzo[d]imidazol-2-yl)amino)-N-hydroxybenzamide]
- AUC0-∞ ([1]; 1.0 mg/kg IV): 329.14 ng·h/mL
- AUC % Extrap ([1]; 1.0 mg/kg IV): 1.44%
- Cl/F obs ([1]; 1.0 mg/kg IV): 3.04 L/h/kg
- Rsq (>0.85) ([1]; 1.0 mg/kg IV): 0.85
- half-life ([1]; 1.0 mg/kg IV): 72 min
- AUC % Extrap ([1]; 5.0 mg/kg PO): 0.14%
- Cmax ([1]; 5.0 mg/kg PO): 407.10 ng/mL
- Rsq (>0.85) ([1]; 5.0 mg/kg PO): 1.00
- AUC(0-t) ([1]; plasma, 1.0 mg/kg IV): 324 ng·h/mL
- Tmax ([1]; plasma, 1.0 mg/kg IV): 4.8 min
- half-life ([1]; plasma, 1.0 mg/kg IV, read-out: Half-life (converted)): 72 min
- Vd ([1]; plasma, 1.0 mg/kg IV, read-out: Vss): 3.5 L/kg
- AUC(0-t) ([1]; plasma, 5.0 mg/kg PO): 1280 ng·h/mL
- CL/F ([1]; plasma, 5.0 mg/kg PO): 65.2 mL/min/kg
- Tmax ([1]; plasma, 5.0 mg/kg PO): 30 min
- bioavailability ([1]; plasma, 5.0 mg/kg PO): 77.6%
- half-life ([1]; plasma, 5.0 mg/kg PO, read-out: Half-life (converted)): 154 min
- Vd/F ([1]; plasma, 5.0 mg/kg PO, read-out: Vz/F obs): 14.5 L/kg
- AUC(0-inf) ([1]; plasma, iv, 1 mg/kg, 1.0 mg/kg IV, read-out: AUC0-∞): 329 ng·h/mL
- Cmax ([1]; plasma, iv, 1 mg/kg, 1.0 mg/kg IV, read-out: Cmax): 508 ng/mL
- AUC(0-inf) ([1]; plasma, po, 5 mg/kg, 5.0 mg/kg PO, read-out: AUC0-∞): 1280 ng·h/mL
- Cmax ([1]; plasma, po, 5 mg/kg, 5.0 mg/kg PO, read-out: Cmax): 407 ng/mL
- AUC(0-inf) ([1]; plasma, po, 5 mg/kg, 5 mg/kg oral, read-out: AUC0-∞ (overall exposure following oral doses)): 1280 ng·h/mL
- IC50 (HDAC3): 0.068 µM
- IC50 (HDAC1): 0.385 µM
- IC50 (HDAC10): 3.56 µM
- IC50 (HDAC6): 0.015 µM
- IC50 (MM1.S cells): 2000 nM
- half-life (S9 in vitro half-life): > 90 min
- Papp (Permeability (PAMPA)): 1.65 ×10⁻⁶ cm/s

SMILES: O=C(NO)c1ccc(Nc2nc3ccccc3n2CC2(F)CCCCC2)cc1 [ID #4]
- IC50 (MM1.S cells): 2600 nM
